Assay results reported in US6395780B1, “Cleavage system inhibitors as potential antipsychotics” (Merck Patent GmbH, priority 1999, dated 2002).
Entries after “also recorded” stand apart in the source; their conditions may differ. Read-outs that look alike come from different tables or passages of the source.

Tests used:
[1] = test system: PCP-induced hyperlocomotion; assay: PCP-induced hyperlocomotion model; assay type: in vivo
Description: For the PCP-induced hyperlocomotion model we use a test apparatus consisting of a clear plexiglass box (45 cm×45 cm) equipped with two series of equally spaced infrared beam lights controlling X-Y axes and connected to a microcomputer. Measured automatically are the distance (way) traveled [m], and the time spent with locomotion or resting [sec] in intervals of 30 min over a total of 90 minutes following PCP administration. […] PCP at the indicated dose induces excessive locomotor behavior with an increase of about 200-250% measured by either locomotion distance or time compared to control animals.

[2] = test system: PCP-induced disruption of PPI; assay: PCP-induced disruption of prepulse inhibition (PPI); assay type: in vivo, rats
Source text: For the PCP-induced disruption of PPI we use a commercially available standard equipment (Coulbourn Instruments, USA) consisting of a sound attenuated test box equipped with a startle response measuring unit connected to a microcomputer; a white noise generator applies a constant level of back ground noise during the experiment. After a habituation period, a series of 70 combinations of prepulses (no prepulse or […] above back ground noise) and pulses (90 to 126 dB) is randomly applied to the rats. […] In control animals, presentation of the prepulse inhibits the startle response elicited by the pulse alone. PCP at the indicated doses induces a disruption of PPI by a maximum of about 70% compared to control animals. The doses indicated above are used for valproate and cysteamine, administered before the PCP challenge.

[3] = test system: apomorphine-induced climbing behavior; assay: apomorphine-induced climbing test in mice; assay type: in vivo; settings: for inhibition of apomorphine-induced climbing behavior: apomorphine 1.25 mg/kg subcutaneously
Source text: Although the complex interaction of glycine with the neurotransmitter dopamine is not yet fully understood, the counterbalancing effects (symmetric bilateral changes) of glycine and dopamine, at least in part via GABAergic and cholinergic interneurons, in the central nervous system are well known for long ([…] et al., 1978; Giorguieff et al., 1979; […] et al., 1979; Schmidt and […] et al., 1998). Dopamine antagonists are the classic antischizophrenic drugs, and conventional animal models to test for antischizophrenic drugs with a dopaminergic mechanism of action use the induction of stereotyped behaviours such as climbing behavior in mice by the application of dopamine-agonistic drugs such as apomorphine (Protais et al., 1976; Puech et al., 1978). […] Therefore the model compound cysteamine at the doses indicated before are investigated in the climbing test in mice, too.

[4] = test system: glycine levels; settings: i.p. 250 mg/kg in 8 day old rats (Iwama 1997); cited from earlier work
[5] = test system: negative symptoms in schizophrenic patients; settings: cited from earlier work
[6] = test system: hyperlocomotion induced by PCP or related drugs; settings: PCP or related drugs as challenge stimulants, rodents; cited from earlier work
[7] = biological target: T1, Glycine Cleavage System (GCS) (Homo sapiens, UniProt P09622+P23378+P23434+P48728); settings: liver mitochondria; read-out: Ki for GCS inhibition; cited from earlier work
[8] = biological target: T1, Glycine Cleavage System (GCS); settings: brain mitochondria; read-out: Ki for GCS inhibition; cited from earlier work
[9] = biological target: T1, Glycine Cleavage System (GCS); settings: Benavides 1983; cited from earlier work
[10] = test system: negative symptoms; settings: cited from earlier work

T1 sequence (P23378 36-1020): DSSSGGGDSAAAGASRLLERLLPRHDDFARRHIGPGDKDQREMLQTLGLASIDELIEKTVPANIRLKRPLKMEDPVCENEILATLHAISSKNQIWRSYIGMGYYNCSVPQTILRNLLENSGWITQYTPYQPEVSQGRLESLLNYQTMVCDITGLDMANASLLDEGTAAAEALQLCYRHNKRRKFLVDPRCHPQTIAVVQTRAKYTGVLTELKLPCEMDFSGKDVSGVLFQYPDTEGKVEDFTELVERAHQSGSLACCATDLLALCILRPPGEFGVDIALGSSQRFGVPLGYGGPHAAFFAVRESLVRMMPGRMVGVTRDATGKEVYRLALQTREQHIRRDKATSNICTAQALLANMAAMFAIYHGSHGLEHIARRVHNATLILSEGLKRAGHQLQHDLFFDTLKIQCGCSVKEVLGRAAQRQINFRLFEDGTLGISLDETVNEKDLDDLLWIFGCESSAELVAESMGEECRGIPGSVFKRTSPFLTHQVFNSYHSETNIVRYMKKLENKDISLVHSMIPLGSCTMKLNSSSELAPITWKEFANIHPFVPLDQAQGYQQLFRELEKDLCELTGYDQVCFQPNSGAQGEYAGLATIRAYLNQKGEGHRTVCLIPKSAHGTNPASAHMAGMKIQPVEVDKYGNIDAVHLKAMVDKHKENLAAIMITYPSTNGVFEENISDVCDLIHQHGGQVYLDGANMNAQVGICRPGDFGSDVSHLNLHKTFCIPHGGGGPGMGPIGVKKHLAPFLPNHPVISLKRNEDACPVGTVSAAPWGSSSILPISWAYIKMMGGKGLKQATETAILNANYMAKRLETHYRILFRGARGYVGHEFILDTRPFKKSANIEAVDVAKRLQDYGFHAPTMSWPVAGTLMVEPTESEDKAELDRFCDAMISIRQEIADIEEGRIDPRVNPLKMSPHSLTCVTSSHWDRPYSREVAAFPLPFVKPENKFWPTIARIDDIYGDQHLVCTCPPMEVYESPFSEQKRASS
T1 sequence (P48728 29-403): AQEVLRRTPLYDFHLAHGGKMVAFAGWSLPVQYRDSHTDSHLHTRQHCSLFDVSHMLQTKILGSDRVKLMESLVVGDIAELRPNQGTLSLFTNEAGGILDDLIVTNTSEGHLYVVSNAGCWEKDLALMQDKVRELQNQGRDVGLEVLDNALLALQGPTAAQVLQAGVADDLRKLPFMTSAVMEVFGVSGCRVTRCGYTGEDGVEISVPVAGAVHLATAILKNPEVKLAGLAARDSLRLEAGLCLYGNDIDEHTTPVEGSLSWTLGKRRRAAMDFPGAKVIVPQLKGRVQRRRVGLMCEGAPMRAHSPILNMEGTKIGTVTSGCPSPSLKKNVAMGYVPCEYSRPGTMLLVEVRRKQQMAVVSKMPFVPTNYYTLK
T1 sequence (P23434 49-173): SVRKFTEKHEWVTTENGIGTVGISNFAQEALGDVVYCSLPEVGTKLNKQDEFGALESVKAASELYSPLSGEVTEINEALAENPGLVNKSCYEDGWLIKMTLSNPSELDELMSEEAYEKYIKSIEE
T1 sequence (P09622 36-509): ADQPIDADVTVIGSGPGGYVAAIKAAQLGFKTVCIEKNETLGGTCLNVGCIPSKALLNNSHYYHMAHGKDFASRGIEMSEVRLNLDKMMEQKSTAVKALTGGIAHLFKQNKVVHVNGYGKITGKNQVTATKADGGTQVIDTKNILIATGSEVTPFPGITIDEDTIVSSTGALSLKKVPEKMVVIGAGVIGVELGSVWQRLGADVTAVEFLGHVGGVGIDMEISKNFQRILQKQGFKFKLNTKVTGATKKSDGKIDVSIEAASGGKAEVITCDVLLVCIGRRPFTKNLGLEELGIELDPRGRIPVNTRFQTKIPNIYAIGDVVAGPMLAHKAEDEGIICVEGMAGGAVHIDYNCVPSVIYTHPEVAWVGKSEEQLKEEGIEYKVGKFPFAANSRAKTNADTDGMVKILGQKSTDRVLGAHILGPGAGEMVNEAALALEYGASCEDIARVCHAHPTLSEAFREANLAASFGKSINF

SMILES: NCCS [Cysteamine]
- effect on PCP-induced hyperlocomotion ([1]; 100 to 500 mg/kg parenterally before PCP 5 mg/kg i.p., distance traveled and locomotion time over 90 min): reduction of PCP-induced hyperlocomotion; also recorded: reduce PCP-induced hyperlocomotion
- effect on PCP-induced disruption of PPI ([2]; 100 to 500 mg/kg parenterally before PCP 1-5 mg/kg s.c., different prepulse/pulse combinations): reverse PCP-induced disruption of PPI
- ED50 ([3]; Mus musculus, given prior to the apomorphine challenge, read-out: ED50 (dose which inhibits apomorphine-induced climbing by 50%)): 500 mg/kg
- glycine in the cortex, % of control animals [4]: 360%

SMILES: N[C@@H]1CONC1=O [D-cycloserine]
- inhibition of apomorphine-induced climbing behavior [3]: inhibited
- negative symptoms ([5]; 50 mg/d along with effective dose of antipsychotics, double blind, placebo-controlled (Goff 1999)): improvement in negative symptoms
- negative symptoms in schizophrenic patients ([5]; 50 mg/d, trial assessing 15 to 250 mg/d (Goff 1995)): reduced negative symptoms
- efficacy in the hyperlocomotion model [6]: repeatedly demonstrated

SMILES: CCCCCCCCCCCCNC(=O)CN [GDA, glycyldodecylamide]
- inhibition of apomorphine-induced climbing behavior [3]: inhibited
- efficacy in the hyperlocomotion model [6]: repeatedly demonstrated

SMILES: c1ccc(C2(N3CCCCC3)CCCCC2)cc1 [PCP, phencyclidine]
- increase of locomotor behavior (distance or time) compared to control animals ([1]; PCP 5 mg/kg intraperitoneally): 200-250%
- disruption of PPI compared to control animals (maximum) ([2]; PCP 1-5 mg/kg subcutaneously): about 70%

SMILES: N[C@@H]1CCN(O)C1=O [R-(+)-HA-966, R-(+)-3-amino-1-hydroxypyrrolid-2-one]
- efficacy in the hyperlocomotion model [6]: repeatedly demonstrated

SMILES: CCCC(CCC)C(=O)O [Valproate]
- Ki [7]: 590 µM
- Ki [8]: 2000 µM

SMILES: N#CCN [aminoacetonitrile]
- GCS inhibition (in words) [9]: weak inhibitors

SMILES: NCC(=O)O [glycine]
- side effects ([10]; 0.4 g/kg and 0.8 g/kg glycine orally along with usual antipsychotic medication): No changes
- amelioration of negative symptoms ([10]; 0.4 g/kg glycine orally along with usual antipsychotic medication): 15%
- amelioration of negative symptoms ([10]; 0.8 g/kg glycine orally along with usual antipsychotic medication): 30%
- efficacy in the hyperlocomotion model [6]: repeatedly demonstrated

SMILES: C#CCN [propargylamine]
- GCS inhibition (in words) [9]: weak inhibitors
